From patent US10472420B2, “Immune response modifier conjugates” (3M INNOVATIVE PROPERTIES COMPANY, priority 2006, dated 2019) come the findings set out here.

The melting point is the temperature of the solid-liquid transition.

`CCOCc1nc2c(N)nc3ccccc3c2n1CC(C)(C)NC(=O)CCC(=O)NN` [IRM5, N-{2-[4-Amino-2-(ethoxymethyl)-1H-imidazo[4,5-c]quinolin-1-yl]-1,1-dimethylethyl}-4-hydrazino-4-oxobutanamide] had a melting point of 203 to 204.6 °C.
In turn, `CCOCc1nc2c(N)nc3cc(OCCCCCCNC(=O)CCS)ccc3c2n1CC(C)(C)NS(C)(=O)=O` [IRM10, N-{6-[(4-Amino-2-(ethoxymethyl)-1-{2-methyl-2-[(methylsulfonyl)amino]propyl}-1H-imidazo[4,5-c]quinolin-7-yl)oxy]hexyl}-3-mercaptopropanamide] yielded a melting point of 152 to 157 °C.
